Source: patent US20070293486A1, “Alpha-Keto Carbonyl Calpain Inhibitors” (SANTHERA PHARMACEUTICALS (SCHWEIZ) AG, priority 2004, published 2007)

How the values were obtained:
[1] = target: T1, 20S Proteasome (Oryctolagus cuniculus, UniProt G1T4Q9); assay: 20S Proteasome Assay; format: biochemical; conditions: Rabbit, read-out: 20S Prot IC50
T1 sequence (G1T4Q9 1-263): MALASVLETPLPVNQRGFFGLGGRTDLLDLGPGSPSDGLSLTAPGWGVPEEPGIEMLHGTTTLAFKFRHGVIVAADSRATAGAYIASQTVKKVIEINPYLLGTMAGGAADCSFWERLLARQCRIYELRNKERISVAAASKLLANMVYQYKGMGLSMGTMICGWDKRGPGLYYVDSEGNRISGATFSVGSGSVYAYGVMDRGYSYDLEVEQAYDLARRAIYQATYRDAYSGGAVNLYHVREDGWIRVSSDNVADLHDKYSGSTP
Protocol: 25 μl of a reaction buffer containing 400 μM of the fluorogenic substrate Suc-Leu-Leu-Val-Tyr-AMC (Bachem) are dispensed per well of a white microtiter plate. Test compounds dissolved in 0.5 μl DMSO are added. To start the reaction; 25 μl of reaction buffer containing 35 ng of enzyme (20S Proteasome, Rabbit, Calbiochem) are added. The increase in fluorescence (excitation at 360 nm; emission at 440 nm) is measured over 30 min at 30° C. at 30″. The IC50's are then determined from the slopes.

[2] = target: T2, human μ-calpain (Homo sapiens, UniProt P07384); assay: Enzymatic Calpain Inhibition Assay; format: biochemical; conditions: enzymatic calpain I inhibition; read-out: Calp I IC50
T2 construct: purchased Calbiochem
T2 sequence (P07384 1-714): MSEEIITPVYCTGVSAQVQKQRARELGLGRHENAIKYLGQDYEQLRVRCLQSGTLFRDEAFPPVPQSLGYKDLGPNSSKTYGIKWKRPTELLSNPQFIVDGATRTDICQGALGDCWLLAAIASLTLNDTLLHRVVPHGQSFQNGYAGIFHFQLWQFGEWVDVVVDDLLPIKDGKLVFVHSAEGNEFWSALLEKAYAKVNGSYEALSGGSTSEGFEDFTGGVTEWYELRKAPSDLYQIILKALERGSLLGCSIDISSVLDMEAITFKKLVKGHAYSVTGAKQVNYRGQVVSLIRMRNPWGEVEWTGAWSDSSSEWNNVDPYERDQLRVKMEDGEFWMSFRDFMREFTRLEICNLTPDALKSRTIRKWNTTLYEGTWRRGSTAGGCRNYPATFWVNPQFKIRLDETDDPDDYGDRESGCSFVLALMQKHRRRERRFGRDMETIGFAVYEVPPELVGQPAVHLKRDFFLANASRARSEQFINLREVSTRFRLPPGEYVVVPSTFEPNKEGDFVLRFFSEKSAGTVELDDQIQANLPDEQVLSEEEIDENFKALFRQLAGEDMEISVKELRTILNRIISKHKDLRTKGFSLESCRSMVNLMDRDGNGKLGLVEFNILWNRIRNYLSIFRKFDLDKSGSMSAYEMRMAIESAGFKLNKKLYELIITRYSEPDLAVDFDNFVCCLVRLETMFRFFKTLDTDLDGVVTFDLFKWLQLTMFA
T2 sequence (P04632 1-268 partner): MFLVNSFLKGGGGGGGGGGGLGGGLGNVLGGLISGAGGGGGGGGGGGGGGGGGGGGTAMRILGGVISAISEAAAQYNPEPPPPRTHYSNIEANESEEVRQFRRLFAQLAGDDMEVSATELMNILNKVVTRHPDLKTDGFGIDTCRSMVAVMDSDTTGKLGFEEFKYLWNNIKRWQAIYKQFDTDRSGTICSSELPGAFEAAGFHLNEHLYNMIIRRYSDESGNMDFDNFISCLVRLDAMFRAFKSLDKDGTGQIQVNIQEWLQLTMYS
Protocol: The Ki value was also determined in some cases. These criteria were used to measure the inhibitory effect of the compounds (I) on calpain I, calpain II and cathepsin B.
The inhibitory properties of calpain inhibitors are tested in 100 μl of a buffer containing 100 mM imidazole pH 7.5, 5 mM L-Cystein-HCl, 5 mM CaCl2, 250 μM of the calpain fluorogenic substrate Suc-Leu-Tyr-AMC (Sigma) (Sasaki et al., J. Biol. Chem., 1984, 259, 12489-12949) dissolved in 2.5 μl DMSO and 0.5 μg of human μ-calpain (Calbiochem). The inhibitors dissolved in 1 μl DMSO are added to the reaction buffer. The fluorescence of the cleavage product 7-amino-4-methylcoumarin (AMC) is followed in a SPECTRAmax GEMINI XS (Molecular Device) fluorimeter at λex=360 nm and λem=440 nm at 30° C. during 30 min at intervals of 30 sec in 96-well plates (Greiner). The initial reaction velocity at different inhibitor concentrations is plotted against the inhibitor concentration and the IC50 values determined graphically.

[3] = test system: utrophin protein levels in human DMD myotubes; assay: Utrophin Expression Assay in Human Myotubes; format: cell-based; conditions: 50 nM test compound
Protocol: Utrophin induction was determined by a method which was similar to a method of 1. Courdier-Fruh et al., Neuromuscular Disord., 2002, 12, S95-S104. Primary human muscle cell cultures were prepared from muscle biopsies taken during orthopedic surgery from Duchenne patients (provided by the Association Francaise contre les Myopathies). Cultures were prepared and maintained according to standard protocols. Induction of utrophin expression in human DMD myotubes was assayed at 50 nM or 500 nM of test compound added in differentiation medium. Normalized utrophin protein levels are determined after 56 d of incubation by cell-based ELISA with a mouse monoclonal antibody to the aminoterminal portion of utrophin (NCL-DRP2, Novocastra Laboratories). For calibration, the cell density and differentiation was determined by absorbance measurements of the total dehydrogenase enzyme activity in each well using the calorimetric CellTiter 96®AQ One Solution Reagent Proliferation Assay (Promega) according to the manufacturer's recommendation. Subsequently, cells were fixed, washed, permeabilized with 0.5% (v/v) Triton X-100 and unspecific antibody binding-sites blocked by standard procedures. Utrophin protein levels were determined immunologically with utrophin-specific primary antibody and with an appropriate peroxidase-coupled secondary antibody (Jackson ImmunoResearch Laboratories) using QuantaBlu™ Fluorogenic Peroxidase Substrate Kit (Pierce) for detection. Fluorescence measurements were carried out with a multilabel counter (Wallac) at λex=355 nm and at λem=460 nm. The primary readout of this signal is presented in arbitrary units. For calibration, the arbitrary units representing the relative utrophin protein content of each well was divided by the corresponding cell-titer absorbance value to correct for cell density. For comparison between experiments, the cell-titer corrected readout for utrophin protein content in each well was expressed in percent of solvent treated control cultures (set to 100%), i.e. data are % utrophin protein levels compared to DMSO solvent (N=4).

Structure (SMILES): CCNC(=O)C(=O)[C@H](Cc1ccc(Cl)cc1)NC(=O)[C@@H](NC(=O)[C@H](Cc1ccccc1)NC(=O)CCCCC1CCS[S+]1[O-])C(C)C (stereo partly drawn) [Example 2]
- IC50 [1]: 160 nM
- IC50 [2]: 38 nM

Structure (SMILES): CCNC(=O)C(=O)C(Cc1ccc(OC)cc1)NC(=O)C(CC(C)C)NC(=O)C(Cc1cccc2ccccc12)NC(=O)CCCCC1CCSS1 (stereo not drawn) [Example 637]
- IC50 [1]: 40 nM
- IC50 [2]: 30 nM
- UTR Induction @50 nM [3]: 121%
- melting point: 188 to 190 °C
